# Key:
# [1] = system: Aurora B (Thr232) phosphorylation; assay: Western blotting of total Aurora B and phospho-Aurora B (Thr232) in synchronized HeLa S3 cells with Aurora inhibitors (Example 7); type: cell-based, human; settings: 300 nM added 4 hours after release, sampling 0 to 24 hours, FIG. 24
# Experimental: First, HeLa S3 cells were synchronized at the GI/S boundary by the above-mentioned double-thymidine block, and after 4 hours from the start of release, a control (DMSO, final 0.5%), an Aurora A-selective inhibitor 6-((4-(2,3-difluorobenzoyl)piperazin-1-yl)methyl)-N-thiazol-2-ylpyridin-2-amine (in FIG. 24, this is shown as “Aurora A Inhibitor 1”), an Aurora B inhibitor ZM477439 (J. Cell. Biol., Vol. 161, p. 267, 2003) or a pan-Aurora inhibitor VX-680 was added in an amount of 300 nM, followed by sampling at regular intervals for 0 to 24 hours. Next, the samples were analyzed for total Aurora B and phospho-Aurora B (Thr232) expression by western blotting.
# [2] = system: histone H3 (Ser28) phosphorylation; assay: Western blotting of histone H3 Ser28 and Ser10 phosphorylation in asynchronous HeLa S3 cells (Example 8); type: cell-based, human; settings: concentration series, compared with phospho-Aurora B (Thr232), FIG. 26
# [3] = system: PD marker candidate genes (BIRC5, KNTC2, PRC1, TACC3, DLG7) in HeLa-S3 cells; assay: Real-time PCR of PD marker candidate genes after treatment with Aurora A inhibitor (Example 2); type: cell-based, human; settings: 24 hours, FIGS. 6 to 10
# Experimental: A predetermined concentration of 6-((4-(2,3-difluorobenzoyl)piperazin-1-yl)methyl)-N-thiazol-2-ylpyridin-2-amine was acted on HeLa-S3 cells; and after 24 hours, the cells were collected, the total RNA was isolated and then converted into cDNA, and this was processed for real-time PCR in the same manner as in Example 1.
# [4] = system: PD marker candidate genes in HeLa-luc cancer graft; assay: Expression change of PD marker candidate genes in planted cancer, continuous administration to rat (Example 3); type: in vivo, F344/N Jcl-rnu female nude rat; settings: nude rat with HeLa-luc graft, intravenous drip infusion for 48 hours
# Experimental: (§1) First, a cervical cancer strain HeLa-luc cells were subcutaneously transplanted to the back of an F344/N Jcl-rnu female nude rat. After 1 week, a […] cancer nude rat was subjected to femoral vein cannulation operation; and using a syringe pump, an Aurora A inhibitor 6-((4-(2-fluoro-3-(trifluoromethyl)benzoyl)piperazin-1-yl)methyl)-N-1H-pyrazol-3-ylpyrazin-2-amine was administered by intravenous drip infusion for 48 hours. After the administration, the collected cancer graft and the skin specimen were frozen and stored in liquid nitrogen.
# Next, the total RNA was isolated from the collected cancer graft and formed into cDNA, which was checked for the expression change of the PD marker candidate genes. In addition to 5 genes identified in culture cells, Aurora A (AurA) and Aurora B (AurB) were also investigated as candidate genes. The primer probe sets for Aurora A and B are as follows. For every primer and probe, a human gene was used as the template.
# [5] = system: Aurora B (Thr232) phosphorylation; assay: Western blotting of phospho-Aurora B (Thr232), Aurora B, Survivin, Plk1 in asynchronous HeLa S3 cells with Aurora A-selective inhibitor (Example 6); type: cell-based, human; settings: for ratio of phospho-Aurora B/Aurora B: based on the compound concentration 0 nM of 1
# Experimental: (§2) First, asynchronously-cultured HeLa S3 cells were planted in an amount of 1×10^6 cells, and incubated overnight at 37° C. in 5% CO2. At 10:00 on the next day, the medium was exchanged with a medium to which 6-((4-(3-chloro-2-fluorobenzoyl)piperazin-1-yl)methyl)-N-thiazol-2-ylpyridin-2-amine had been added to be a final concentration of 0, 30, 100, 300, 1000, 3000, 10000, 30000 nM, and then, after 8 hours and 24 hours, the cells were peeled with trypsin and collected. A half of the cells was analyzed by western blotting; ¼ of the cells were analyzed for cell cycle through flow cytometry; and the last remaining ones were analyzed for phosphorylation of histone H3 (Ser10). The cell samples processed in the same manner were analyzed for expression profiling through TaqMan-PCR.
# HeLa S3 cells = assay: Cell cycle analysis by flow cytometry in asynchronous HeLa S3 cells with Aurora A-selective inhibitor (Example 6); type: cell-based, human; settings: 8 hours and 24 hours, FIGS. 20, 21
# Experimental: as §2
# [6] = system: histone H3 (Ser10) phosphorylation; assay: Histone H3 (Ser10) phosphorylation by flow cytometry in HeLa S3 cells (Example 6); type: cell-based, human; settings: FIG. 23
# Experimental: as §2
# [7] = system: PD marker candidate genes in rat skin; assay: Expression change of PD marker candidate genes in skin, continuous administration to rat (Example 4); type: in vivo; settings: same rat skin as Example 3 (intravenous drip infusion for 48 hours); FIGS. 13 to 16
# Experimental: as §1
# The same rat skin as that used in Example 3 was checked for the expression change of PD marker candidate genes through real-time PCR. The primers of the candidate genes in the rat are as shown below. For every primer and probe, a rat gene was used as the template. The probe was modified with FAM/TAMRA.
# [8] = HeLa S3 cells, 8 hours and 24 hours
# [9] = HeLa S3 cells, expression admitted in the background with no compound addition
smiles,measurement,setting,value
"O=C(c1cccc(F)c1F)N1CCN(Cc2cccc(Nc3nccs3)n2)CC1 [6-((4-(2,3-difluorobenzoyl)piperazin-1-yl)methyl)-N-thiazol-2-ylpyridin-2-amine]",Aurora B expression,[1],expressed Aurora B to a high level even after 10 hours
same,phospho-Aurora B (Thr232) expression,[1],remarkably increased
same,phospho-histone H3 (Ser28) induction by inhibitor,[2],concentration-dependent induction
same,"expression level of the PD marker candidate genes (BIRC5, KNTC2, PRC1, TACC3, DLG7)",[3],increased dependently on the Aurora A inhibitor concentration
O=C(c1cccc(C(F)(F)F)c1F)N1CCN(Cc2cncc(Nc3cc[nH]n3)n2)CC1 [6-((4-(2-fluoro-3-(trifluoromethyl)benzoyl)piperazin-1-yl)methyl)-N-1H-pyrazol-3-ylpyrazin-2-amine],expression of BIRC5 in cancer graft,[4],significantly increased
same,expression of DLG7 in cancer graft,[4],significantly increased
same,peak of the expression change (dose),[4],1 mpk
same,expression level of the PD marker candidate genes in cancer graft,[4]; FIGS. 11 and 12,increased
O=C(c1cccc(Cl)c1F)N1CCN(Cc2cccc(Nc3nccs3)n2)CC1 [6-((4-(3-chloro-2-fluorobenzoyl)piperazin-1-yl)methyl)-N-thiazol-2-ylpyridin-2-amine],concentration range in which Aurora B inhibition begins (phosphorylation of Aurora B again inhibited),[5]; HeLa S3 cells,> 30 µM
same,expression of phospho-Aurora B (Thr232),"[5]; HeLa S3 cells, 0-30000 nM, exposure 8 hours and 24 hours, FIG. 22",increased dependently on the administration concentration
same,concentration of phosphorylation depression of Aurora B (considered Aurora B inhibition),[5]; [8],≥ 30 µM
same,expression level of Aurora B,[5]; [8],did not change so much
same,expression induction window of Plk1,[5]; [9],at most 3.5 times
same,expression induction window of Survivin,[5]; [9],at most 3.5 times
same,ratio of phospho-Aurora B/Aurora B,[5]; exposure period of 8 hours,at most 16 times
same,ratio of phospho-Aurora B/Aurora B,[5]; exposure period of 24 hours,up to 10 times
same,concentration from which the proportion of the M-stage began to increase,HeLa S3 cells,around 300 nM
same,concentration up to which the M-stage was kept,HeLa S3 cells,around 10 μM
same,Histone H3 (Ser10) phosphorylation in flow cytometry,[6],could not take a large window
Cc1cc(Nc2cc(N3CCN(C)CC3)nc(Sc3ccc(NC(=O)C4CC4)cc3)n2)n[nH]1 [VX-680],Aurora B expression,[1],detected on the same level as that in the control
same,phospho-Aurora B (Thr232) expression,[1],no phospho-Aurora B was detected at all
same,phospho-histone H3 (Ser28) induction by inhibitor,[2],did not have a phosphorylation band at all
COc1cc2c(Nc3ccc(NC(=O)c4ccccc4)cc3)ncnc2cc1OCCCN1CCOCC1 [ZM477439],Aurora B expression,[1],detected on the same level as that in the control
same,phospho-Aurora B (Thr232) expression,[1],no phospho-Aurora B was detected at all
"O=C(O)[C@]1(Cc2cccc(Nc3nccs3)n2)CC[C@@H](Oc2cccc(Cl)c2F)CC1 [trans-4-(3-chloro-2-fluorophenoxy)-1-((6-(1,3-thiazol-2-ylamino)pyridin-2-yl)methyl)cyclohexanecarboxylic acid]",expression level of the candidate genes in rat skin,[7],significantly increased

# Reference: patent US20100022404A1, “Gene/protein marker for prediction or diagnosis of pharmacological efficacy of aurora a inhibitor” (priority 2006, published 2010)
